Reference: patent US9012200B2, “Composition of bacterial strains, bioremediation mixture and use of this composition for the removal of contaminants from the soil and the method for purifying the soil contaminants” (priority 2012, dated 2015)
≈ marks a conversion by molar mass, not a printed value.

Key:
Type in all cases: cell-based
[1] = tested on: Brevundimonas sp. strain 6N; assay: Antibiotic MIC by E-test; conditions: Brevundimonas, 24 h, read-out: MIC threshold values for a given antibiotic
Protocol: (§1) A disc diffusion method was performed to determine the susceptibility of bacteria to the selected antibiotics. We used discs soaked with the antibiotic of a well-defined concentration (BioMerioux) (Table 2) and the minimal inhibitory concentration test was carried out, using E-tests (Oxoid) (Table 3).
(§2) In the next stage of the research, MIC values of a given antibiotic for the investigated strains were determined, meaning the lowest concentration of the drug, expressed in mg/L, determined in vitro, which inhibits the growth of bacteria at a defined inoculum density, within a given time (Hryniewicz et at, 2001). These studies allow for the closer determination of the degree of susceptibility of bacteria to the applied antibiotics.
(§3) A bacterial suspension was evenly distributed on dishes with ready-to-use MHA medium (Oxoid), and then plastic testing strips (E-tests) soaked with an antibiotic with a concentration gradient were placed thereon. The dishes were incubated at 25-30° C. for 24 h, and the test results were read after this time.
(§4) The intersection of elliptical zone of inhibition, which appeared around the test strip, with the value indicator on the gradient scale of the strip, determined the lowest concentration of antibiotic, inhibiting growth of the microorganism (MIC). Similarly as in the disc diffusion method, the obtained results were compared with the guidelines contained in the relevant standards.

[2] = tested on: Stenotrophomonas sp. strain 5L; assay: Antibiotic MIC by E-test; conditions: Stenotrophomonas, 24 h, read-out: MIC threshold values for a given antibiotic
Protocol: as §1, §2, §3, §4

[3] = tested on: Pseudomonas sp. strain 4G; assay: Antibiotic MIC by E-test; conditions: Pseudomonas, 24 h, read-out: MIC threshold values for a given antibiotic
Protocol: as §1, §2, §3, §4

[4] = tested on: Arthrobacter sp. strain 1N; assay: Antibiotic MIC by E-test; conditions: Arthrobacter; strain 1N, E-test, 24 h; read-out: MIC threshold values for a given antibiotic
Protocol: as §1, §2, §3, §4

[5] = tested on: Stenotrophomonas sp. strain 6L; assay: Antibiotic MIC by E-test; conditions: Stenotrophomonas, 24 h, read-out: MIC threshold values for a given antibiotic
Protocol: as §1, §2, §3, §4

[6] = tested on: Pseudomonas sp. strain 3G; assay: Antibiotic MIC by E-test; conditions: Pseudomonas, 24 h, read-out: MIC threshold values for a given antibiotic
Protocol: as §1, §2, §3, §4

[7] = tested on: Brevundimonas sp. strain 5N; assay: Antibiotic MIC by E-test; conditions: Brevundimonas, 24 h, read-out: MIC threshold values for a given antibiotic
Protocol: as §1, §2, §3, §4

[8] = tested on: Stenotrophomonas sp. strain 2L; assay: Antibiotic MIC by E-test; conditions: Stenotrophomonas, 24 h, read-out: MIC threshold values for a given antibiotic
Protocol: as §1, §2, §3, §4

[9] = tested on: Achromobacter sp. strain 4P; assay: Antibiotic MIC by E-test; conditions: Achromobacter; strain 4P, E-test, 24 h; read-out: MIC threshold values for a given antibiotic
Protocol: as §1, §2, §3, §4

[10] = tested on: Stenotrophomonas sp. strain 3N; assay: Antibiotic MIC by E-test; conditions: Stenotrophomonas, 24 h, read-out: MIC threshold values for a given antibiotic
Protocol: as §1, §2, §3, §4

[11] = tested on: Brevundimonas sp. strain 2N; assay: Antibiotic MIC by E-test; conditions: Brevundimonas, 24 h, read-out: MIC threshold values for a given antibiotic
Protocol: as §1, §2, §3, §4

[12] = tested on: Brevundimonas sp. strain 6N; assay: Disc diffusion antibiotic susceptibility
Protocol: as §1
(§5) A McFarland's 0.5 inoculum was prepared from each strain's culture, using a densitometer (EMO). Then, using sterile cotton swabs, the suspension of bacterial cells was spread on dishes with ready-to-use MHA medium (Oxoid), and after 15 minutes, discs soaked with antibiotics at defined concentrations were placed on them.
(§6) The dishes were incubated at 25-30° C., and the results were read after 24 and 48 hours. The measure of susceptibility of a tested strain to a given antibiotic was the size of the inhibition zone which formed around the disc soaked with the antibiotic. The results read (sizes of zones measured in mm) were compared with the data contained in the European Committee on Antimicrobial Susceptibility Testing (EUCAST) standards from 2010 (Table 4).
(§7) The measure of susceptibility of the tested bacterial strain to a given antibiotic was the size of the inhibition zone which formed around the disc (Table 5).

[13] = tested on: Stenotrophomonas sp. strain 5L; assay: Disc diffusion antibiotic susceptibility
Protocol: as §1, §5, §6, §7

[14] = tested on: Pseudomonas sp. strain 4G; assay: Disc diffusion antibiotic susceptibility
Protocol: as §1, §5, §6, §7

[15] = tested on: Arthrobacter sp. strain 1N; assay: Disc diffusion antibiotic susceptibility
Protocol: as §1, §5, §6, §7

[16] = tested on: Stenotrophomonas sp. strain 6L; assay: Disc diffusion antibiotic susceptibility
Protocol: as §1, §5, §6, §7

[17] = tested on: Pseudomonas sp. strain 3G; assay: Disc diffusion antibiotic susceptibility
Protocol: as §1, §5, §6, §7

[18] = tested on: Brevundimonas sp. strain 5N; assay: Disc diffusion antibiotic susceptibility
Protocol: as §1, §5, §6, §7

[19] = tested on: Stenotrophomonas sp. strain 2L; assay: Disc diffusion antibiotic susceptibility
Protocol: as §1, §5, §6, §7

[20] = tested on: Achromobacter sp. strain 4P; assay: Disc diffusion antibiotic susceptibility
Protocol: as §1, §5, §6, §7

[21] = tested on: Stenotrophomonas sp. strain 3N; assay: Disc diffusion antibiotic susceptibility
Protocol: as §1, §5, §6, §7

[22] = tested on: Brevundimonas sp. strain 2N; assay: Disc diffusion antibiotic susceptibility
Protocol: as §1, §5, §6, §7

SMILES	MIC [1] [µg/mL]	MIC [2] [µg/mL]	MIC [3] [µg/mL]	MIC [4] [µg/mL]	MIC [5] [µg/mL]	MIC [6] [µg/mL]	MIC [7] [µg/mL]	MIC [8] [µg/mL]	MIC [9] [µg/mL]	MIC [10] [µg/mL]	MIC [11] [µg/mL]	Size of the growth inhibition zone ([12]; 24 h) [mm]	Size of the growth inhibition zone ([13]; 24 h) [mm]	Size of the growth inhibition zone ([14]; 24 h) [mm]	Size of the growth inhibition zone ([15]; 24 h) [mm]	Size of the growth inhibition zone ([16]; 24 h) [mm]	Size of the growth inhibition zone ([17]; 24 h) [mm]	Size of the growth inhibition zone ([18]; 24 h) [mm]	Size of the growth inhibition zone ([19]; 24 h) [mm]	Size of the growth inhibition zone ([20]; 24 h) [mm]	further results
CC[C@H]1OC(=O)[C@H](C)[C@@H](O[C@H]2C[C@@](C)(OC)[C@@H](O)[C@H](C)O2)[C@H](C)[C@@H](O[C@@H]2O[C@H](C)C[C@H](N(C)C)[C@H]2O)[C@](C)(O)C[C@@H](C)C(=O)[C@H](C)[C@@H](O)[C@]1(C)O [E, erythromycin]	256 (≈ 349 µM)	≥ 256	≥ 256	256 (≈ 349 µM)	≥ 256	≥ 256	256 (≈ 349 µM)	≥ 256	256 (≈ 349 µM)	≥ 256	128 (≈ 174 µM)	0	0	0	0	0	0	0	0	0	Size of the growth inhibition zone ([21]; 24 h): 0 mm; Size of the growth inhibition zone ([22]; 24 h): 0 mm
CC1(C)S[C@@H]2[C@H](NC(=O)Cc3ccccc3)C(=O)N2[C@H]1C(=O)O [P, penicillin G]	≥ 32	≥ 32	≥ 32	≥ 32	≥ 32	≥ 32	≥ 32	≥ 32	≥ 32	≥ 32	≥ 32	0	0	0	0	0	0	0	0	0	Size of the growth inhibition zone ([21]; 24 h): 0 mm; Size of the growth inhibition zone ([22]; 24 h): 0 mm
Cc1cc(NS(=O)(=O)c2ccc(N)cc2)no1 [RL, sulfamethoxazole]	≥ 1020	8 (≈ 31.6 µM)	≥ 1020	12 (≈ 47.4 µM)	12 (≈ 47.4 µM)	≥ 1020	≥ 1020	6 (≈ 23.7 µM)	12 (≈ 47.4 µM)	12 (≈ 47.4 µM)	12 (≈ 47.4 µM)	0	0	0	0	0	0	0	0	0	Size of the growth inhibition zone ([21]; 24 h): 0 mm; Size of the growth inhibition zone ([22]; 24 h): 0 mm
[H]/N=C(/N)N[C@H]1[C@H](O)[C@@H](O)[C@H](O[C@@H]2O[C@@H](C)[C@](O)(C=O)[C@H]2O[C@@H]2O[C@@H](CO)[C@H](O)[C@@H](O)[C@@H]2NC)[C@@H](N/C(N)=N\[H])[C@@H]1O [S, streptomycin]	≥ 1020	64 (≈ 110 µM)	≥ 1020	48 (≈ 82.5 µM)	≥ 1020	≥ 1020	64 (≈ 110 µM)	64 (≈ 110 µM)	96 (≈ 165 µM)	384 (≈ 660 µM)	384 (≈ 660 µM)	0	8	0	12	0	10	0	16	0	Size of the growth inhibition zone ([15]; 48 h): 10 mm; Size of the growth inhibition zone ([19]; 48 h): 10 mm; Size of the growth inhibition zone ([21]; 24 h): 0 mm; Size of the growth inhibition zone ([22]; 24 h): 0 mm
CN(C)[C@@H]1C(O)=C(C(N)=O)C(=O)[C@@]2(O)C(O)=C3C(=O)c4c(O)cccc4[C@@](C)(O)[C@H]3C[C@@H]12 [TE, tetracycline]	6 (≈ 13.5 µM)	8 (≈ 18 µM)	6 (≈ 13.5 µM)	6 (≈ 13.5 µM)	6 (≈ 13.5 µM)	6 (≈ 13.5 µM)	6 (≈ 13.5 µM)	6 (≈ 13.5 µM)	12 (≈ 27 µM)	6 (≈ 13.5 µM)	6 (≈ 13.5 µM)	17	19	19	17	17	17	18	17	19	Size of the growth inhibition zone ([12]; 48 h): 0 mm; Size of the growth inhibition zone ([13]; 48 h): 0 mm; Size of the growth inhibition zone ([14]; 48 h): 0 mm; Size of the growth inhibition zone ([15]; 48 h): 0 mm; Size of the growth inhibition zone ([16]; 48 h): 0 mm; Size of the growth inhibition zone ([17]; 48 h): 0 mm; Size of the growth inhibition zone ([18]; 48 h): 0 mm; Size of the growth inhibition zone ([19]; 48 h): 0 mm; Size of the growth inhibition zone ([20]; 48 h): 0 mm; Size of the growth inhibition zone ([21]; 24 h): 19 mm; Size of the growth inhibition zone ([21]; 48 h): 0 mm; Size of the growth inhibition zone ([22]; 24 h): 18 mm; Size of the growth inhibition zone ([22]; 48 h): 0 mm
